Structure (SMILES): Cl.N=C(N=C(N)N)N1CCOCC1
- solubility (mole fraction) (in acetone, 283.15 K): 1.9e-05
- solubility (mole fraction) (in acetone, 293.15 K): 3.3e-05
- solubility (mole fraction) (in acetone, 303.15 K): 6.2e-05
- solubility (mole fraction) (in acetone, 313.15 K): 0.000107
- solubility (mole fraction) (in acetone, 323.15 K): 0.000186
- solubility (mole fraction) (in acetonitrile, 283.15 K): 9.1e-05
- solubility (mole fraction) (in acetonitrile, 293.15 K): 0.000106
- solubility (mole fraction) (in acetonitrile, 303.15 K): 0.000117
- solubility (mole fraction) (in acetonitrile, 313.15 K): 0.000128
- solubility (mole fraction) (in acetonitrile, 323.15 K): 0.000149
- solubility (mole fraction) (in ethanol, 283.15 K): 0.0023
- solubility (mole fraction) (in ethanol, 293.15 K): 0.00283
- solubility (mole fraction) (in ethanol, 303.15 K): 0.00356
- solubility (mole fraction) (in ethanol, 313.15 K): 0.00461
- solubility (mole fraction) (in ethanol, 323.15 K): 0.00615
- solubility (mole fraction) (in ethyl acetate, 283.15 K): 7.7e-05
- solubility (mole fraction) (in ethyl acetate, 293.15 K): 9.7e-05
- solubility (mole fraction) (in ethyl acetate, 303.15 K): 0.000117
- solubility (mole fraction) (in ethyl acetate, 313.15 K): 0.000138
- solubility (mole fraction) (in ethyl acetate, 323.15 K): 0.000161
- solubility (mole fraction) (in isobutanol, 283.15 K): 0.000621
- solubility (mole fraction) (in isobutanol, 293.15 K): 0.000696
- solubility (mole fraction) (in isobutanol, 303.15 K): 0.000915
- solubility (mole fraction) (in isobutanol, 313.15 K): 0.00124
- solubility (mole fraction) (in isobutanol, 323.15 K): 0.00157
- solubility (mole fraction) (in isopropanol, 283.15 K): 0.000482
- solubility (mole fraction) (in isopropanol, 293.15 K): 0.00062
- solubility (mole fraction) (in isopropanol, 303.15 K): 0.00079
- solubility (mole fraction) (in isopropanol, 313.15 K): 0.001
- solubility (mole fraction) (in isopropanol, 323.15 K): 0.00124
- solubility (mole fraction) (in methanol, 283.15 K): 0.013
- solubility (mole fraction) (in methanol, 293.15 K): 0.0215
- solubility (mole fraction) (in methanol, 303.15 K): 0.0268
- solubility (mole fraction) (in methanol, 313.15 K): 0.0341
- solubility (mole fraction) (in methanol, 323.15 K): 0.0423
- solubility (mole fraction) (in n-butanol, 283.15 K): 0.000682
- solubility (mole fraction) (in n-butanol, 293.15 K): 0.000834
- solubility (mole fraction) (in n-butanol, 303.15 K): 0.00101
- solubility (mole fraction) (in n-butanol, 313.15 K): 0.00137
- solubility (mole fraction) (in n-butanol, 323.15 K): 0.00184
- solubility (mole fraction) (in n-pentanol, 283.15 K): 0.00045
- solubility (mole fraction) (in n-pentanol, 293.15 K): 0.000545
- solubility (mole fraction) (in n-pentanol, 303.15 K): 0.00061
- solubility (mole fraction) (in n-pentanol, 313.15 K): 0.000729
- solubility (mole fraction) (in n-pentanol, 323.15 K): 0.000967
- solubility (mole fraction) (in n-propanol, 283.15 K): 0.0011
- solubility (mole fraction) (in n-propanol, 293.15 K): 0.00136
- solubility (mole fraction) (in n-propanol, 303.15 K): 0.00161
- solubility (mole fraction) (in n-propanol, 313.15 K): 0.00206
- solubility (mole fraction) (in n-propanol, 323.15 K): 0.00279
- solubility (mole fraction) (in sec-butanol, 283.15 K): 0.000297
- solubility (mole fraction) (in sec-butanol, 293.15 K): 0.000358
- solubility (mole fraction) (in sec-butanol, 303.15 K): 0.000445
- solubility (mole fraction) (in sec-butanol, 313.15 K): 0.000534
- solubility (mole fraction) (in sec-butanol, 323.15 K): 0.000732
- solubility (mole fraction) (in water, 283.15 K): 0.0565
- solubility (mole fraction) (in water, 293.15 K): 0.0653
- solubility (mole fraction) (in water, 303.15 K): 0.0853
- solubility (mole fraction) (in water, 313.15 K): 0.105
- solubility (mole fraction) (in water, 323.15 K): 0.127
